The values that follow come from EP0338042B1, “COMPOSITION AND METHOD FOR TREATING HEPATITIS VIRUS INFECTIONS USING 1-(2'-DEOXY-2'-FLUORO-BETA-D-ARABINOFURANOSYL)-5-ETHYLURACIL” (priority 1987, dated 1989).

Data set [1] concerns the target T1, HBV DNA polymerase (Hepatitis B virus genotype D subtype ayw, UniProt P03156).
T1 construct: from tissue; host or cells: serum of an immunosuppressed, HBsAg-positive patient; virions purified on sucrose and CsCl gradients
Nature of the data set: DNA polymerase assay with purified virus particles. The following applies: for IC50: concentration of inhibitor giving a 50% inhibition of DNA polymerase activity, read-out: ID₅₀ HBV DNA POLYMERASE; for relative efficiency as inhibitor of HBV DNA polymerase: excess of nucleotides, similar results with WHV DNA polymerase; for nature of inhibition (Lineweaver-Burk plots): ACVTP, FIACTP, BVdUTP versus dGTP, dCTP, dTTP respectively, similar for WHV DNA polymerase; for ID₅₀ compared with FIACTP (times more): stated for HBV and WHV DNA polymerases. The class given is biochemical. The source says:
(§1) HBV particles containing DNA polymerase activity were purified from the serum of an immunosuppressed patient, positive for HBsAG. WHV was obtained from a serum pool of five woodchucks (Marmota monax), chronic carriers of the virus. The woodchucks initially imported from Pennsylvania belonged to a colony followed for over one year by serological tests as reported in Hantz et al., J. Virol. Metho. 7: 45-55 (1983). Virus was purified by centrifugation on sucrose and isopycnic CsCl gradients.
(§2) DNA polymerase was assayed as described by Kaplan et al., J. Virol. 12: 995 (1973) with minor modification. The assay was performed in a 50 µl reaction mixture containing 50 mM Tris-HCl pH 7.5, 40 mM MgCl₂, 60 mM NH₄Cl, 100 µM each dATP, dCTP and dGTP, 0.2-0.7 µM [³H] dTTP (30 Ci/mmol), 10 mM 2-mercaptoethanol, 0.5% Nonidet P-40 and enzyme. The reaction was started by addition of the virus particles with 2-mercaptoethanol and Nonidet P 40. Incubation was at 37°C for 1 hour. Acid insoluble radioactive material was collected on a glass fiber filter (GF/C Whatman). Filters were washed 5 times with cold 5% trichloracetic acid containing 10 mM sodium pyrophosphate, then with 95% ethanol. Radioactivity of the dried filter was measured in a liquid scintillation counter.
(§3) The relative sensitivities of both enzymes to ACVTP, FIACTP and BVdUTP were compared using an excess of nucleotides. For each inhibitor, the concentration of the corresponding radioactive triphosphate was maintained at 2 to 3 times the Km value while the remaining nucleotides were in great excess (50 µM).

The target of a further data set is T2, WHV DNA polymerase (Woodchuck hepatitis B virus, UniProt P03160).
T2 construct: The reaction was started by addition of the virus particles with 2-mercaptoethanol and Nonidet P 40; from tissue; host or cells: serum pool of five chronically infected woodchucks (Marmota monax); virions purified on sucrose and CsCl gradients
T2 sequence (P03160 whole entry): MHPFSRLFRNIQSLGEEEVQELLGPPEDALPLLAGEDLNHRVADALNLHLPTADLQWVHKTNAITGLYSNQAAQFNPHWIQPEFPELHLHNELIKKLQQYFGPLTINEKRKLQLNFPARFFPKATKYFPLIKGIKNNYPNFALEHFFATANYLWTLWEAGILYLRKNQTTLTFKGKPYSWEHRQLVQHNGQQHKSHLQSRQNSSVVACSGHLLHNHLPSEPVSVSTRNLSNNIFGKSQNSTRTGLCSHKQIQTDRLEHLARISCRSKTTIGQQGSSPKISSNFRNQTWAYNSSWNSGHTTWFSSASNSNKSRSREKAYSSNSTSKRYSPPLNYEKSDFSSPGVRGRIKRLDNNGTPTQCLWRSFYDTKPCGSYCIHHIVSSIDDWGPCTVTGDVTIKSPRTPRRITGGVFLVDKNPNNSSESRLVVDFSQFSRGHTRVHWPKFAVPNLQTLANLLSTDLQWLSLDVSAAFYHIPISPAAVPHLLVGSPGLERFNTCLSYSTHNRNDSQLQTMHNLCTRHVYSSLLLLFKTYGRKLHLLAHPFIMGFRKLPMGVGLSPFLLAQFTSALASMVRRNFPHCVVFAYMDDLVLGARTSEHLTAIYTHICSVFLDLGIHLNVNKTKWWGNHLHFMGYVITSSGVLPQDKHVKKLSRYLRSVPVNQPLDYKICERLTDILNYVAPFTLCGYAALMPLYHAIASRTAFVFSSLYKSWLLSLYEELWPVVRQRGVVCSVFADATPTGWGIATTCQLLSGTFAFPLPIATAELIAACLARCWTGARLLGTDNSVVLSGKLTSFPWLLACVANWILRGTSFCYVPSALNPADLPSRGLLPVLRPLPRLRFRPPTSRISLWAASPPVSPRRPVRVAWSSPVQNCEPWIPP
Nature of the data set: DNA polymerase assay with purified virus particles. The class given is biochemical. Particulars: read-out: ID₅₀ WHV DNA POLYMERASE
Text: as §1, §2, §3

Data set [2] deals with T1, HBV DNA polymerase. Kind of data set: Time course of DNA synthesis with triphosphate analogs in place of the natural substrate. The class given is biochemical. Particulars: for DNA synthesis with analog substituted for the natural substrate: ara-TTP for dTTP, ara-CTP for dCTP, ACVTP for dGTP; for HBV DNA synthesis after addition of the normal substrate: reaction started with analog instead of normal substrate (ACVTP 5 µM), normal substrate (100 µM dGTP) added after 120 minutes. Here is the method:
as §2
To determine the effect of the three analogs on viral DNA synthesis, a time course experiment was performed with HBV DNA polymerase. [³H] dATP was used as the labeled substrate. With all four nucleoside triphosphate substrates, the reaction was linear up to 60 mn. […] The substitution of dTTP by BVdUTP permitted the viral DNA synthesis up to 46% of the control after 3 hours of reaction. This value increased to 67% of the optimal activity after 4 h of reaction.
BVdUTP was the most efficient alternate substrate for both enzymes. The DNA synthesized with BVdUTP as alternate substrate was analyzed by agarose gel electrophoresis. Only incomplete filling of the single-stranded region of HBV or WHV DNA was obtained with BVdUTP.
The effect of ACVTP on HBV DNA synthesis was also studied in a time course experiment. [³H] dTTP was the labeled substrate. The reaction was initiated without dGTP or with 5 µm ACVTP instead of dGTP. Under these conditions, no incorporation of [³H] dTMP could be measured. After 120 minutes of reaction, 100 µM of dGTP was added. In the assay without dGTP only, the addition of dGTP increased DNA synthesis as expected. […] By comparison, when the reaction was started with the same proportion of ACVTP (5 µM) and dGTP (100 µM) a significant DNA synthesis was observed. Similar experiments were carried out with ara-ATP and ara-CTP.

Another data set concerns HSV-2 (STRAIN G). The following applies: cited from earlier work; for MDD: twice a day for 4 days from 5 hr after inoculation, calculated on day 21; for % SURVIVORS: twice a day for 4 days; for %WT GAIN ON DAY 7 / %WT GAIN ON DAY 14 / %WT GAIN ON DAY 21 / %WT GAIN ON DAY 30: compared to day 1.
For data set [3], the system named is woodchuck hepatitis virus (WHV). Kind of data set: Inhibition of WHV replication in chronically infected woodchucks (DNA polymerase activity). Particulars: for WHV DNA polymerase levels / WHV DNA polymerase levels after cessation of drug administration: other antivirals, dose not given; for virus replication levels: dosages similar to FMAU (2-4 mg/kg per day); for virus replication levels after cessation of treatment: dosages similar to FMAU, soon after cessation. The class given is in vivo, woodchucks (Marmota monax). Here is the method: All woodchucks bearing chronic active hepatitis virus (Hantz, supra) were administered FMAU twice daily by interperitoneal injections of FMAU in the following dosages:
Studies were then undertaken to evaluate FMAU and FEAU in this animal model using woodchucks naturally chronically-infected with woodchuck hepatitis virus (24). It was assumed that these nucleosides would be anabolized to their nucleoside triphosphates within the animal. WHV replication was measured periodically by the endogenous DNA polymerase activity and by the detection of WHV DNA by the dot-blot hybridization assay. Three different dosages of FMAU and FEAU were investigated. FMAU at 2 mg/kg/day x 5, (given intraperitoneally TABLE VIII
In accordance with the procedures of Example 2, the FEAU inhibition of WHV replication was further studied at different doses administered orally to woodchucks through stomach tubes. Two groups of woodchucks with different initial WHV replication values were examined.
Seven woodchucks with high WHV replication were tested. High replication was defined as over 1000 counts per minute of DNA polymerase activity, and the mean replication was 1600.
Seven woodchucks with low WHV replication were tested. Low replication was defined as lower than 1000 counts per minute of DNA polymerase activity, and the mean replication was 600-800.

The nature of a further data set: physchem. The source says: Ongoing testing of woodchucks bearing hepatitis virus is being conducted with the following additional pyrimidine nucleoside compounds: FIAC (2′-fluoro-2′-deoxy-arabinosyl-5-iodoocytosine) and FIAU (2′-fluoro-2′-deoxy-arabinosyl-5-iodouracil). As with FMAU, water is the preferred carrier.
If necessary, the solubility of the compounds FMAU, FIAC, and FIAU may be increased by adding acid or base to the aqueous solvent.

[4] abbreviates: concentration of inhibitor giving a 50% inhibition of DNA polymerase activity.

In brackets after ≈: the same amount, converted by molar mass. Read-outs that look alike come from different tables or passages of the source.

T1 sequence (P03156 whole entry): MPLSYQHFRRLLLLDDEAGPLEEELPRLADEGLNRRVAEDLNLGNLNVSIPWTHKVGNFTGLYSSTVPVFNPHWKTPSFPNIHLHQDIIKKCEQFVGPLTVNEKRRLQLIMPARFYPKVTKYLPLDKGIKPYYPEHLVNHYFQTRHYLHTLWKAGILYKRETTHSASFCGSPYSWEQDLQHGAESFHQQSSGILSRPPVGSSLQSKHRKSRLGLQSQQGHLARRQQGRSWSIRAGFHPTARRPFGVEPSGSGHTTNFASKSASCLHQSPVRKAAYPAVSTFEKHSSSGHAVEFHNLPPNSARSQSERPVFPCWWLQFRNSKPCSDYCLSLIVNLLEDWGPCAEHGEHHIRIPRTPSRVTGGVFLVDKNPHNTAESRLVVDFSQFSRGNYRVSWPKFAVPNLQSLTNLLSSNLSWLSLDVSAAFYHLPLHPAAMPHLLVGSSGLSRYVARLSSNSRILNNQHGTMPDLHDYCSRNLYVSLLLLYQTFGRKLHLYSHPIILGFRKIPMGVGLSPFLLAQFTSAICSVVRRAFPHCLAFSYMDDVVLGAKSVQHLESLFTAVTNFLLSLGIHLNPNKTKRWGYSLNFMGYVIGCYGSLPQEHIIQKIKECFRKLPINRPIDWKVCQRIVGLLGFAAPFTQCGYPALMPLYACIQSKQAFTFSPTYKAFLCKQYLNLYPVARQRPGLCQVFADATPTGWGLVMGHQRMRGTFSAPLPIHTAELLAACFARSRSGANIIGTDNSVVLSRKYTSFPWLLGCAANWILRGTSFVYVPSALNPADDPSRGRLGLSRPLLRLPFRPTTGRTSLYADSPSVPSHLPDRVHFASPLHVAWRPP

As to `Nc1ccn([C@@H]2O[C@H](COP(=O)(O)OP(=O)(O)OP(=O)(O)O)[C@@H](O)[C@@H]2O)c(=O)n1` [ara-CTP], at HBV DNA polymerase [1], the IC50 turned out to be 1100 nM and the “relative efficiency as inhibitor of HBV DNA polymerase” value is reported as “least efficient”. The IC50 on WHV DNA polymerase (setting [4]) was 1200 nM. Also, at HBV DNA polymerase [2], the “DNA synthesis with analog substituted for the natural substrate” value (“DNA synthesis with analog substituted” for short) was “no significant incorporation” and the “HBV DNA synthesis after addition of the normal substrate” value (from here on “HBV DNA synthesis after addition”) is “increased the HBV DNA synthesis”.
With `CCc1cn([C@H]2C[C@H](O)[C@@H](CO)O2)c(=O)[nH]c1=O` [EDU, 5-ethyl-2′-deoxyuridine, reference compound], in the data set with HSV-2 (STRAIN G) (EDU 800 MG/KG/DAY), the MDD is on record as 7.6, the “% SURVIVORS” value is on record as 13%, the “%WT GAIN ON DAY 7” value is given as -10% and the “%WT GAIN ON DAY 14” value is listed as -6%. Further, in the data set on HSV-2 (STRAIN G) (EDU 800 MG/KG/DAY), the “%WT GAIN ON DAY 21” value was 2% and the “%WT GAIN ON DAY 30” value is 6%. In the data set on HSV-2 (STRAIN G) (EDU 1000 MG/KG/DAY), the MDD is listed as 8.6, the “% SURVIVORS” value is 33%, the “%WT GAIN ON DAY 7” value was 3% and the “%WT GAIN ON DAY 14” value was 13%. For the same compound, in the data set on HSV-2 (STRAIN G) (EDU 1000 MG/KG/DAY), the “%WT GAIN ON DAY 21” value is 34% and the “%WT GAIN ON DAY 30” value was 43%.
As for `Nc1nc2c(ncn2COC(CO)CO)c(=O)[nH]1` [DHPG], in data set [3], the “WHV DNA polymerase levels” value was “diminished” and the “WHV DNA polymerase levels after cessation of drug administration” value is “rebounded to pretreatment levels”.
As to `Nc1nc(=O)n([C@@H]2O[C@H](COP(=O)(O)OP(=O)(O)OP(=O)(O)O)[C@@H](O)[C@@H]2F)cc1I` [FIACTP], on HBV DNA polymerase [1], the “nature of inhibition (Lineweaver-Burk plots)” value (“nature of inhibition” for short) was “competitive” and the “relative efficiency as inhibitor of HBV DNA polymerase” value is “most efficient inhibitor”. The IC50 at WHV DNA polymerase (setting [4]) worked out at 100 nM.
Regarding `Nc1nc2c(ncn2COCCOP(=O)(O)OP(=O)(O)OP(=O)(O)O)c(=O)[nH]1` [ACVTP], on HBV DNA polymerase [1], the “nature of inhibition” value was “competitive”, the IC50 turned out to be 900 nM and the “ID₅₀ compared with FIACTP (times more)” value was determined as 18 times. The IC50 on WHV DNA polymerase (setting [4]) was determined as 700 nM. At HBV DNA polymerase [2], the “DNA synthesis with analog substituted” value is on record as “did not increase the polymerization process” and the “HBV DNA synthesis after addition” value is “no DNA synthesis was observed”.
In the case of `Nc1ncnc2c1ncn2[C@@H]1O[C@H](COP(=O)(O)O)[C@@H](O)[C@@H]1O` [ara-AMP], in data set [3], the virus replication levels entry was “diminished”, the “virus replication levels after cessation of treatment” value is “rebounded to pretreatment levels”, the “WHV DNA polymerase levels” value is “diminished” and the “WHV DNA polymerase levels after cessation of drug administration” value is “rebounded to pretreatment levels”.
As to `O=c1[nH]c(=O)n([C@H]2C[C@H](O)[C@@H](COP(=O)(O)OP(=O)(O)OP(=O)(O)O)O2)cc1/C=C/Br` [BVdUTP], at HBV DNA polymerase [1], the “nature of inhibition” value is on record as “competitive”, the IC50 turned out to be 250 nM and the “ID₅₀ compared with FIACTP (times more)” value turned out to be 5 times. Moreover, the IC50 at WHV DNA polymerase (setting [4]) stood at 300 nM.
On to `Cc1cn([C@@H]2O[C@H](COP(=O)(O)OP(=O)(O)OP(=O)(O)O)[C@@H](O)[C@@H]2O)c(=O)[nH]c1=O` [ara-TTP], for which the IC50 on HBV DNA polymerase [1] came to 300 nM; on WHV DNA polymerase (setting [4]), 400 nM. Also, the “DNA synthesis with analog substituted” value at HBV DNA polymerase [2] is “no significant DNA synthesis”.
In the case of `Nc1ncc2ncn(COCCO)c2n1` [6-deoxy-acyclovir], in data set [3], the “WHV DNA polymerase levels” value is listed as “diminished” and the “WHV DNA polymerase levels after cessation of drug administration” value was “rebounded to pretreatment levels”.
Consider `Nc1nc(=O)n([C@@H]2O[C@H](CO)[C@@H](O)[C@@H]2F)cc1I` [FIAC, 1-(2'-deoxy-2'-fluoro-beta-D-arabinofuranosyl)-5-iodocytosine], for which the “toxicity (previous results)” value in data set [3] (woodchucks, previous results) is reported as “lethal toxicity”. Besides, in the data set “physchem” (aqueous hydrochloric acid), the solubility (as a rule, the dissolved amount per volume that the medium holds) was roughly 250 mg/mL (≈ 674 mM).
With `Nc1ncnc2c1ncn2[C@@H]1O[C@H](COP(=O)(O)OP(=O)(O)OP(=O)(O)O)[C@@H](O)[C@@H]1O` [ara-ATP], the “HBV DNA synthesis after addition” value at HBV DNA polymerase [2] is given as “increased the HBV DNA synthesis”.
Turning to `Cc1cn([C@@H]2O[C@H](COP(=O)(O)OP(=O)(O)OP(=O)(O)O)[C@@H](O)[C@@H]2F)c(=O)[nH]c1=O` [FMAU-TP], the IC50 on HBV DNA polymerase [1] was determined as 25 nM; at WHV DNA polymerase it was 50 nM.
Consider `O=c1[nH]c(=O)n([C@@H]2O[C@H](CO)[C@@H](O)[C@@H]2F)cc1I` [FIAU, 2′-fluoro-2′-deoxy-arabinosyl-5-iodouracil], for which, in “physchem”, the solubility entry is reported as “increased many fold”.
As to `Nc1nc2c(ncn2COCCO)c(=O)[nH]1` [acyclovir], in data set [3], the virus replication levels entry is listed as “diminished” and the “virus replication levels after cessation of treatment” value is on record as “rebounded to pretreatment levels”.
